A value given as a limit tells only on which side of the number the result lay.

From patent US7429618B2, “Potassium channel modulators” (Neurosearch A/S, priority 2002, dated 2008) come the findings set out here.

As for `CC(SC(c1ccc(F)cc1)(c1ccc(F)cc1)c1ccccc1F)C(N)=O` (centres unmarked) [Compound 5-18, 2-[Bis-(4-fluoro-phenyl)-(2-fluoro-phenyl)-methylsulfanyl]-propionamide], the melting point – broadly, the temperature of the solid-liquid transition – fell in the range of 133 to 134 °C. In turn, `CC(=O)C(C#N)(c1ccc(F)cc1)c1ccc(F)cc1` [Compound 18, 2,2-Bis-(4-fluoro-phenyl)-3-oxo-butyronitrile] gave a melting point of less than 50 °C.

Consider `CCN(CC)C(=O)CSC(c1ccc(F)cc1)(c1ccc(F)cc1)c1ccccc1F` [Compound 5-14, 2-[Bis-(4-fluoro-phenyl)-(2-fluoro-phenyl)-methylsulfanyl]-N,N-diethyl-acetamide], for which the melting point was 122 to 123 °C. The value for `COP(=O)(OC)C(c1ccc(F)cc1)(c1ccc(F)cc1)c1ccc(Cl)cc1` was 136 to 137 °C; that for `O=C(CSC(c1ccc(F)cc1)(c1ccc(F)cc1)c1ccccc1F)N1CCCCC1` [Compound 5-16, 2-[Bis-(4-fluoro-phenyl)-(2-fluoro-phenyl)-methylsulfanyl]-1-piperidin-1-yl-ethanone] was 128 to 129 °C. The value for `Cn1ccnc1SC(c1ccc(F)cc1)(c1ccc(F)cc1)c1ccc(F)cc1` [Compound 5-11, 1-Methyl-2-[tris-(4-fluorophenyl)-methylsulfanyl]-1H-imidazole] was 135.5 to 140.5 °C; that for `N#CCSC(c1ccc(F)cc1)(c1ccc(F)cc1)c1ccccc1F` [Compound 5-19, [Bis-(4-fluoro-phenyl)-(2-fluoro-phenyl)-methylsulfanyl]-acetonitrile] was 111 to 112 °C. For `CS(=O)(=O)C(c1ccc(F)cc1)(c1ccc(F)cc1)c1ccc(F)cc1` [Compound 7-1, Methyl tris(4-fluorophenyl)methyl sulfone], the melting point lay in the range of 140.6 to 145.3 °C. For `O=[N+]([O-])c1ccc(OC(c2ccc(F)cc2)(c2ccc(F)cc2)c2nccs2)cc1C(F)(F)F` [Compound 1, 2-[Bis-(4-fluoro-phenyl)-(4-nitro-3-trifluoromethyl-phenoxy)-methyl]-thiazole], the melting point lay in the range of 88.6 to 89.5 °C. As for `CN(C(=O)CSC(c1ccc(F)cc1)(c1ccc(F)cc1)c1ccccc1F)c1ccccc1` [Compound 5-15, 2-[Bis-(4-fluoro-phenyl)-(2-fluoro-phenyl)-methylsulfanyl]-N-methyl-N-phenyl-acetamide], the melting point lay in the range of 120 to 121 °C. The value for `N#CC(c1ccc(F)cc1)(c1ccc(F)cc1)C(c1ccccc1)c1ccccc1` [Compound 12, 2,2-Bis-(4-fluoro-phenyl)-3,3-diphenyl-propionitrile] was 208 to 212.5 °C; that for `O=C(O)CSC(c1ccc(F)cc1)(c1ccc(F)cc1)c1ccccc1F` [Compound 5-20, [(2-Fluoro-phenyl)-bis-(4-fluoro-phenyl)-methylsulfanyl]-acetic acid] was 112 to 113 °C. In the case of `CC(C)C(C#N)(c1ccc(F)cc1)c1ccc(F)cc1` [Compound 6, 2,2-Bis-(4-fluoro-phenyl)-3-methyl-butyronitrile], the melting point was in the range of 142.3 to 147 °C. The value for `COP(=O)(OC)C(c1ccc(F)cc1)(c1ccccc1F)c1ccccc1Cl` (centres unmarked) was 131.5 to 132.5 °C; that for `Cc1ccc(C(c2ccc(F)cc2)(c2ccc(F)cc2)P(=O)(O)O)cc1` [Compound 10-15, [Bis-(4-fluoro-phenyl)-p-tolyl-methyl]-phosphonic acid] was 240 °C (dec.).

Compound `COP(=O)(OC)C(c1ccc(F)cc1)(c1ccc(F)cc1)c1ccc(F)cc1` returned a melting point of 131.6 °C. The result for `N#CCC(C#N)(c1ccc(F)cc1)c1ccc(F)cc1` [Compound 24, 2,2-Bis-(4-fluoro-phenyl)-succinonitrile] reads 93 to 94 °C. With `COP(=O)(OC)C(c1ccc(F)cc1)(c1ccc(F)cc1)c1ccccc1F`, the melting point was determined as 136.6 °C. The value for `N#CC(c1ccc(F)cc1)(c1ccccc1F)C(c1ccccc1)c1ccccc1` (centres unmarked) [Compound 13, 2-(2-Fluoro-phenyl)-2-(4-fluoro-phenyl)-3,3-diphenyl-propionitrile] was 210 to 215.3 °C; that for `[O-][n+]1ccccc1SC(c1ccc(F)cc1)(c1ccc(F)cc1)c1ccc(F)cc1` [Compound 5-13, 2-[Tris-(4-fluorophenyl)-methylsulfanyl]-pyridine-N-oxide] was 147.7 to 151.8 °C. The result for `Fc1ccc(C(OP2OCCO2)(c2ccc(F)cc2)c2ccccc2F)cc1` reads 163 to 164 °C. The result for `CCOC(=O)C(C(=O)OCC)C(C#N)(c1ccc(F)cc1)c1ccc(F)cc1` [Compound 27, 2-[Cyano-bis-(4-fluoro-phenyl)-methyl]-malonic acid diethyl ester] reads 117 to 119 °C. Turning to `NC(=O)CSC(c1ccc(F)cc1)(c1ccc(F)cc1)c1ccccc1F` [Compound 5-17, 2-[Bis-(4-fluoro-phenyl)-(2-fluoro-phenyl)-methylsulfanyl]-acetamide], the melting point was in the range of 119 to 120 °C. The result for `Fc1ccc(C(OP2OCCO2)(c2ccc(F)cc2)c2ccc(F)cc2)cc1` reads 195 to 196 °C. `O=P(O)(O)C(c1ccc(F)cc1)(c1ccc(F)cc1)c1ccccc1F` [Compound 10-14, [Bis-(4-fluoro-phenyl)-(2-fluoro-phenyl)-methyl]-phosphonic acid]: the melting point was in the range of 228 to 230 °C. The result for `COC(=O)C(C#N)(c1ccc(F)cc1)c1ccccc1F` (centres unmarked) [Compound 22, Cyano-(4-fluoro-phenyl)-(2-fluoro-phenyl)-acetic acid methyl ester] reads 104 to 105 °C; that for `C=CCC(C#N)(c1ccc(F)cc1)c1ccccc1F` (centres unmarked) [Compound 4, 2-(2-Fluoro-phenyl)-2-(4-fluoro-phenyl)-pent-4-enenitrile], 215 to 219 °C; that for `O=S(=O)(c1ccccc1)C(c1ccc(F)cc1)(c1ccc(F)cc1)c1ccc(F)cc1` [Compound 7-7, Phenyl tris(4-fluorophenyl)methyl sulfone], 157.4 to 160.6 °C. The result for `CS(=O)(=O)C(c1ccc(F)cc1)(c1ccc(F)cc1)c1ccccc1F` [Compound 7-14, Methanesulphonyl-2-fluorophenyl-bis-(4-fluoro-phenyl) methane] reads 147 to 149 °C.
